One compound from patent publication US7625928B2, “Nitroxide radioprotector formulations and methods of use” (priority 2002, dated 2009) can be followed below.

Molecules are shown by their SMILES.

The nature of the data set: In vitro percutaneous absorption of Tempol after multiple applications of Formulation V, Franz static diffusion cells, 30-minute exposures (Example II). In kind it is in vitro ADME, human. The conditions noted are these: test 3, three applications, result in words.

Experimental: The skin was wiped with two dry cotton swabs after each application. Upon completion of the final application and skin wiping, the stratum corneum was removed from the skin. […] Franz static diffusion cells (15 mm diameter orifice, O-ring joint, Crown Bio Scientific, Clinton, N.J.) were mounted on 9-cell manifolds and maintained at a constant temperature of 32° C. by use of re-circulating water baths. […] Each diffusion cell was assembled by placing the excised human abdominal skin from a single donor dermal-side down and then a Teflon® O-ring (which rested in the groove of the donor side, top half, of the diffusion cell. The donor side (top half) of the diffusion cell was then placed on top of the O-ring resting on the skin and held in place by use of a pinch clamp. The joint between the donor and receptor compartments of each cell was wrapped with Parafilm® to prevent evaporation of the receptor solution. […] Air bubbles were dispelled from under the skin. […] The formulation was applied in an alternating fashion to 6 diffusion cells at 0.18 mL of formulation per cell. The diffusion cell sampling port was sealed with […] ® to prevent evaporation. […] If appropriate, the cell was re-dosed with test formulation after removal of the previous dose using two cotton swabs wiped across the skin surface. […]

Turning to `CC1(C)CC(O)CC(C)(C)N1[O]` [Tempol, 4-hydroxy-2,2,6,6-tetramethylpiperidine-1-oxyl], the “third application levels versus levels in the second time point” value is “twice as high”.
